Patent US5698523A, “Acylated enol derivatives as prodrugs of elastase inhibitors” (Merrell Pharmaceuticals Inc., priority 1996, dated 1997)
pKi: −log10 of the molar value.

Molecular target: T1, Human neutrophil elastase (Homo sapiens, UniProt P08246)
T1 construct: Enzyme was isolated from human sputum; from tissue; host or cells: human sputum
T1 sequence (P08246 30-267): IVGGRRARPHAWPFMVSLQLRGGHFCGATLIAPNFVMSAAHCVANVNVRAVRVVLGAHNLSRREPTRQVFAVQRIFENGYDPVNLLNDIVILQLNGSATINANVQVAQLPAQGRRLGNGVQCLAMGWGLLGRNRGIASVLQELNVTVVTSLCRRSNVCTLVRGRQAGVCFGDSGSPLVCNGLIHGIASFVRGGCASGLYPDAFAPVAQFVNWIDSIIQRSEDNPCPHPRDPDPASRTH
Test: In vitro assay of human neutrophil elastase in the presence of prodrug and porcine liver esterase
Assay type: biochemical
Conditions: for time course / onset of inhibition of elastase compared with MDL 103,279: 66 nM compound + porcine liver esterase, FIG. 2
Method: Human neutrophil elastase was assayed in vitro using N-MeOSuc-Ala-Ala-Pro-Val-p-nitroanilide, available commercially, as substrate. The assay techniques are similar to those described by Mehdi, et al., Biochemical and Biophysical Research Communications, 166, 595 (1990). The assay mixture consisted of partially purified elastase and substrate (0.2 mM) in 0.1M HEPES (pH 7.5), 0.5M NaCl, 10% DMSO and 0.1% Brij 35. The reaction (3.0 mL, in a plastic cuvette) was maintained at 37° C. and the hydrolysis of the substrate was followed in the presence of 66 nM of MDL 103,279 and 12.5 units of porcine liver esterase (Sigma Chemical Co., cat. no. E-3128). Enzyme was isolated from human sputum, although recently it has become commercially available. The time course of the reaction was followed for 60 min. […] From the final rate, a Ki of 25 nM was calculated for the final inhibitory species, presumed to be MDL 101,146 (as disclosed in European Pat. Appl. OPI No. 0529568, published Mar. 3, 1993). This is consistent with the Ki obtained independently for MDL 101,146. The Ki for MDL 103,279, the prodrug, was estimated from the initial rate to be greater than 2 μM. To rule out interference of the esterase with the elastase assay, or a significant spontaneous (i.e. non-enzymatic) hydrolysis rate of MDL 103,279, the following control experiments, as portrayed in FIG. 1, were performed: (A) elastase+elastase substrate; (B) elastase+elastase substrate+porcine liver esterase; (C) elastase+elastase substrate+MDL 103,279; as well as (D) elastase+elastase substrate+esterase+MDL 103,279.

SMILES | half-time of the progressive increase in extent of inhibition of elastase (66 nM compound, 12.5 units porcine liver esterase, 37° C., followed for 60 min) | pKi (66 nM compound, 12.5 units porcine liver esterase, pH 7.5, 37° C., read-out: Ki of the prodrug estimated from the initial rate) | time course / onset of inhibition of elastase compared with MDL 103,279
CC(=O)OC(=C(NC(=O)[C@@H]1CCCN1C(=O)[C@@H](NC(=O)c1ccc(C(=O)N2CCOCC2)cc1)C(C)C)C(C)C)C(F)(F)C(F)(F)F [MDL 103,279, (E)-N-[4-(4-Morpholinylcarbonyl)benzoyl]-L-valyl-N-[2-(acetyloxy)-3,3,4,4,4-pentafluoro-1-(1-methylethyl)-1-butenyl]-L-prolinamide] | approximately 10 min | < 5.70 | 
CCC(=O)OC(=C(NC(=O)[C@@H]1CCCN1C(=O)[C@@H](NC(=O)c1ccc(C(=O)N2CCOCC2)cc1)C(C)C)C(C)C)C(F)(F)C(F)(F)F [MDL 104,226, (E)-N-[4-(4-Morpholinylcarbonyl)benzoyl]-L-valyl-N-[3,3,4,4,4-pentafluoro-1-(1-methylethyl)-2-(1-oxopropoxy)-1-butenyl]-L-prolinamide] |  |  | same time course
CC(=O)OC(=C(NC(=O)[C@@H]1CCCN1C(=O)[C@@H](NC(=O)c1ccc(C(=O)N2CCOCC2)cc1)C(C)C)C(C)C)C(F)(F)C(F)(F)F [MDL 105,457, (Z)-N-[4-(4-Morpholinylcarbonyl)benzoyl]-L-valyl-N-[2-(acetyloxy)-3,3,4,4,4-pentafluoro-1-(1-methylethyl)-1-butenyl]-L-prolinamide] |  |  | significantly slower
CC(C)C(=O)OC(=C(NC(=O)[C@@H]1CCCN1C(=O)[C@@H](NC(=O)c1ccc(C(=O)N2CCOCC2)cc1)C(C)C)C(C)C)C(F)(F)C(F)(F)F [MDL 105,658, (E)-N-[4-(4-Morpholinylcarbonyl)benzoyl]-L-valyl-N-[3,3,4,4,4-pentafluoro-1-(1-methylethyl)-2-(2-methyl-1-oxopropoxy)-1-butenyl]-L-prolinamide] |  |  | same time course
